Test results reported in PMC6238273, “First in vivo evaluation of a potential SPECT brain radiotracer for the gonadotropin releasing hormone receptor” (BMC Research Notes, 2018).
Entries after “also recorded” stand apart in the source; their conditions may differ. Each block holds one compound with its values, some of them ahead of it.

Columns and labels:
Rat brain SPECT imaging = assay type: in vivo
Experimental: Compound-1 SPECT brain imaging and biodistribution were examined post injection in rats. All animal procedures were performed under isoflurane anesthesia (Induction 4%, Maintenance 2% in oxygen). One group of rats was injected intravenous (iv.) with [^123I]-Compound-1 (1.67 MBq ± 0.28, n = 3). A second group was injected intraperitoneal (ip.) (4.12 MBq ± 0.56, n = 3). A third group of animals was injected iv. with Na^123I (1.53 MBq ± 0.37 SD, n = 3). Biodistribution of these compounds was studied after the SPECT imaging sessions 1 h post-injection (in the iv. groups) and 2 and 5 h post-administration in the ip. group. Rats were positioned with the brain in the center of the field of view inside a 4 detector configuration Triumph™ II X-SPECT^Ⓡ small animal PET/SPECT/CT scanner (Trifoil Imaging, Northridge Tri-Modality Imaging, Inc., Chatsworth, CA). Heart rate and breathing was monitored with sensors inside a closed animal cell (Equipment Veterinaire Minerve, Esternay) and the temperature on the heated air flow inside the cell was set to 35 °C to prevent hypothermia. […] Images were analyzed using PMOD (PMOD Technologies Ltd., Zürich). […] In addition, an average SPECT image over all time frames was calculated for each animal.

[1] = Stability in human serum by LC-MS; assay type: in vitro ADME; details: for % of compound remaining, human serum: 37 °C
Experimental: (§1) The stability of Compound-1 was initially investigated in saline. Compound-1 was dissolved in ethanol:Polysorbate 80:water (5:5:90) then incubated with 300 µl 0.9% NaCl at ambient temperature to give a final concentration of 6.5 mM (millimolar). Aliquots were taken at 0, 60, 120 and 1560 min, then analysed by LC–MS. Furthermore, Compound-1 was investigated in human and rat serum. Compound-1 in ethanol:Polysorbate 80:water (5:5:90) was incubated with 400 µl human and 300 µl rat serum at 37 °C to give a final concentration of 5 mM and 6.5 mM. Aliquots (40–50 µl) from previous mixtures was extracted with ice-cold acetonitrile at 0, 10, 30, 60, 120, 240 and 1320 min post-incubation. Samples were centrifuged at 13,000g for 5 min. The supernatants were analysed by LC–MS. Serum experiments were performed in triplicate. Additionally, [^123I]-Compound-1 was evaluated for in vivo stability by analyzing blood samples after 1 h post injection. The blood samples were centrifuged and the supernatant was injected on the radio-HPLC.

hGnRHR = biological target: T1, hGnRHR (Homo sapiens, UniProt P30968); assay: Competitive binding for LHRH/GnRH by fluorescence based FLIPR-assay in HEK293T cells stably expressing GnRH receptors; assay type: cell-based; details: for Ki: 5 nM LHRH agonist, Ki by cheng-prusoff equation; for IC50: competition with 5 nM LHRH agonist, read-out: hGnRHR pIC50 (converted)
T1 construct: host or cells: HEK293T
T1 sequence (P30968 1-328): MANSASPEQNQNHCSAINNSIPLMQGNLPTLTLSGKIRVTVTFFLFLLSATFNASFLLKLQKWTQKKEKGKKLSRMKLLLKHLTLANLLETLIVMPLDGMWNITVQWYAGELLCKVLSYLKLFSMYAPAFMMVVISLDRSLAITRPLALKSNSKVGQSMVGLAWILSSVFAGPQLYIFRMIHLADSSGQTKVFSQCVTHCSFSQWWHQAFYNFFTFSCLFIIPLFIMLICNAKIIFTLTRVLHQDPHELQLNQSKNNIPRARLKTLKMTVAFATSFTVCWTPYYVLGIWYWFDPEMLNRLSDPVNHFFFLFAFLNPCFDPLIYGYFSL
Experimental: HEK293T (division arrested cell-line, Multispan Inc. USA) cells stably expressing GnRH receptors were used to measure the competitive binding for LHRH/GnRH by a fluorescence based FLIPR-assay. Compound-1 was tested in concentrations from 50 µM to 0.5 nM with 5 nM LHRH agonist as competitor.
The Ki was determined by using the cheng-prusoff equation [13].

[2] = Stability in saline (0.9% NaCl) by LC-MS; assay type: physicochemical; details: ambient temperature, n = 1
Experimental: as §1, with “Aliquots were taken at 0, 60, 120 and 1560 min, then analysed by LC–MS.” left out

[3] = Stability in rat serum by LC-MS; assay type: in vitro ADME; details: for % of compound remaining, rat serum: 37 °C
Experimental: as §1

[4] = In vivo stability: radio-HPLC of blood samples 1 h post injection; details: rat blood samples 1 h post injection
Experimental: as §1

[5] = Biodistribution in rats (gamma counter, % ID/g); assay type: in vivo; details: rat
Experimental: Compound-1 SPECT brain imaging and biodistribution were examined post injection in rats. All animal procedures were performed under isoflurane anesthesia (Induction 4%, Maintenance 2% in oxygen). One group of rats was injected intravenous (iv.) with [^123I]-Compound-1 (1.67 MBq ± 0.28, n = 3). A second group was injected intraperitoneal (ip.) (4.12 MBq ± 0.56, n = 3). A third group of animals was injected iv. with Na^123I (1.53 MBq ± 0.37 SD, n = 3). Biodistribution of these compounds was studied after the SPECT imaging sessions 1 h post-injection (in the iv. groups) and 2 and 5 h post-administration in the ip. group. Rats were positioned with the brain in the center of the field of view inside a 4 detector configuration Triumph™ II X-SPECT^Ⓡ small animal PET/SPECT/CT scanner (Trifoil Imaging, Northridge Tri-Modality Imaging, Inc., Chatsworth, CA). Heart rate and breathing was monitored with sensors inside a closed animal cell (Equipment Veterinaire Minerve, Esternay) and the temperature on the heated air flow inside the cell was set to 35 °C to prevent hypothermia. Dynamic SPECT acquisitions for 30 and 60 min with 6–12 image frames (5 min duration) were obtained for the animals which were used for 1–2 h biodistribution studies respectively. The animals subjected to the 5 h biodistribution study were scanned after an average of 4 h and 20 min, a static SPECT of 30 min was acquired. 1.0 mm 5-multipinhole collimator (N5F65A10) and 50 mm radius of rotation (ROR). Images were reconstructed using a 20% energy window and Ordered Subset Expectation Maximization (OSEM) algorithm with 5 iterations and 8 subsets. Computed tomography (CT) was performed using 80 kVp, 2 × 2 binning, 512 projections and 1.3× magnification, immediately after SPECT imaging. The raw data were reconstructed using Filtered Back Projection. Images were analyzed using PMOD (PMOD Technologies Ltd., Zürich). Volumes of interests (VOI) representing the brain-tissue, non-brain-tissue and background regions were delineated based on the anatomical CT images, and transferred to the co-registered dynamic SPECT data. In addition, an average SPECT image over all time frames was calculated for each animal.
Animals were euthanized with an overdose of pentobarbital (ip. […]) and organs were collected, weighed and analysed for radioactivity measurements on an automatic gamma counter (Wizard^2 2480, Perkin Elmer, USA). Organ distribution was expressed as percentage of injected dose per gram for the organs selected (% ID/g).

[6] = 120 min, mean ± SD n = 3, listed as compound 1

% of compound remaining, human serum ([1]; 0 min, 5 mM): 100% | % of compound remaining, human serum ([1]; 10 min, mean ± SD n = 3): 88±1.6% | % of compound remaining, human serum ([1]; 30 min, mean ± SD n = 3): 74±8.1% | % of compound remaining, human serum ([1]; 60 min, mean ± SD n = 3): 52±1.5% | % of compound remaining, human serum ([1]; 120 min, mean ± SD n = 3): 23% | % of compound remaining, human serum [1, 6]: 23±1.6% | % of compound remaining, human serum ([1]; 240 min, mean ± SD n = 3): 3±0.3% | % of compound remaining, human serum ([1]; 1320 min): 0% | decrease of compound in human serum ([1]; after 1 h, LC-MS): 50% | Ki (hGnRHR): 82 nM | IC50 (hGnRHR): 5130 nM | % of compound remaining, saline ([2]; 0 min, 6.5 mM): 100% | % of compound remaining, saline ([2]; 60 min): 46% | % of compound remaining, saline ([2]; 120 min): 10% | % of compound remaining, saline ([2]; 1440 min (24 h)): 2% | % of compound remaining, saline ([2]; 1440 min (24 h), listed as compound 1): 1.6% | % of compound remaining, rat serum ([3]; 0 min, 6.5 mM): 100% | % of compound remaining, rat serum ([3]; 10 min, mean ± SD n = 3): 86±7.3% | % of compound remaining, rat serum ([3]; 30 min, mean ± SD n = 3): 82±11.5% | % of compound remaining, rat serum ([3]; 60 min, mean ± SD n = 3): 44±5.5% | % of compound remaining, rat serum ([3]; 120 min, mean ± SD n = 3): approximately 30% | % of compound remaining, rat serum [3, 6]: 30±4.8% | % of compound remaining, rat serum ([3]; 240 min, mean ± SD n = 3): 8±1.6% | % of compound remaining, rat serum ([3]; 1320 min): 0% | decrease of compound in rat serum ([3]; after 1 h, LC-MS): 50%
SMILES: CC(C)(C)c1ccc(-c2nc3c(N4CCN(C(=O)CI)CC4)cccc3[nH]2)cc1 [Compound-1]
brain uptake in SPECT images (Rat brain SPECT imaging; iv. or ip. injection): no uptake; also recorded: did not show any uptake

Ki (hGnRHR): 12.2 nM | IC50 (hGnRHR): 631 nM
SMILES: CC(C)(C)c1ccc(-c2nc3c(N4CCN(Cc5ccc6nccnc6c5)CC4)cccc3[nH]2)cc1 [WAY207024, 6-({4-[2-(4-tert-butylphenyl)-1H-benzimidazol-4-yl]piperazin-1-yl}methyl)quinoxaline, reference compound]

SPECT VOI comparison (brain, non-brain region, background region) (Rat brain SPECT imaging; semi-quantitative SPECT analysis): no significant differences | detection of intact radiotracer in blood by radio-HPLC [4]: did not detect | organ distribution, brain ([5]; 1 h post iv. injection): 0.03 % ID/g | organ distribution, stomach ([5]; 1 h post iv. injection): 3.6 % ID/g | organ distribution, testis ([5]; 1 h post iv. injection): 0.2 % ID/g | organ distribution, thyroid ([5]; 1 h post iv. injection): 1.2 % ID/g | organ distribution, stomach ([5]; 2 h post ip. administration): 2.5 % ID/g | organ distribution, thyroid ([5]; 2 h post ip. administration): 5.8 % ID/g | organ distribution, stomach ([5]; 5 h post ip. administration): 2 % ID/g | organ distribution, thyroid ([5]; 5 h post ip. administration): 13.1 % ID/g
SMILES: CC(C)(C)c1ccc(-c2nc3c(N4CCN(C(=O)C[123I])CC4)cccc3[nH]2)cc1 [[^123I]-Compound-1]
